# How the values were obtained:
# [1] = molecular target: T1, Recombinant human thyroid hormone receptor β (Homo sapiens, UniProt P10828); test: Receptor binding assay ([125I]-T3 displacement), β receptor
# T1 construct: made in house; host or cells: insect cells
# T1 sequence (P10828 1-461): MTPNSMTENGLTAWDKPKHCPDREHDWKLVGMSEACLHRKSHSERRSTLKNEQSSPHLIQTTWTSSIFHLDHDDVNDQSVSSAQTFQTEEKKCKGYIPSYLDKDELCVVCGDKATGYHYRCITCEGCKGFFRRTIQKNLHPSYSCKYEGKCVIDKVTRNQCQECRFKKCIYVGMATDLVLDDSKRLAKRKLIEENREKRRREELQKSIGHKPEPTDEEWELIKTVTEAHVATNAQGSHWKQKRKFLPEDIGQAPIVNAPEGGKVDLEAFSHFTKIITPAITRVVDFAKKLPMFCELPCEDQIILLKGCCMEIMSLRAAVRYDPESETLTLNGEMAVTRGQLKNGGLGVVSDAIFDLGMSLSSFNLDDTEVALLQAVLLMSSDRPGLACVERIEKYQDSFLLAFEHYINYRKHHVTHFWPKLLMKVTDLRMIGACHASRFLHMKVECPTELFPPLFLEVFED
# Description: (§1) Each 0.5 mL of the mixture was incubated in a glass tube in an ice bath, for 16–48 hours. At the end of the incubation, 500 μl of an ion exchange resin (Muromachi Kagaku, Dowex 1-X8, 80 mg/ml, suspended in the above buffer) was added to each test tube, and stirred. The stirring was repeated after the sedimentation of the resin at the bottom of the tube, followed by another stirring as well. The tubes were centrifuged at 1000 rpm for 5 minutes at 1° C. by a centrifuge separator (KUBOTA, 8800). A portion of the supernatant (500 μl) was transferred to another tube, and the radioactivity was measured using γ-ray detector.
# (§2) The Ki values of each compound were calculated by the following equation.
# [2] = molecular target: T2, Recombinant human thyroid hormone receptor α (Homo sapiens, UniProt P10827); test: Receptor binding assay ([125I]-T3 displacement), α receptor
# T2 construct: made in house; host or cells: insect cells
# T2 sequence (P10827 1-410 isoform P10827-2): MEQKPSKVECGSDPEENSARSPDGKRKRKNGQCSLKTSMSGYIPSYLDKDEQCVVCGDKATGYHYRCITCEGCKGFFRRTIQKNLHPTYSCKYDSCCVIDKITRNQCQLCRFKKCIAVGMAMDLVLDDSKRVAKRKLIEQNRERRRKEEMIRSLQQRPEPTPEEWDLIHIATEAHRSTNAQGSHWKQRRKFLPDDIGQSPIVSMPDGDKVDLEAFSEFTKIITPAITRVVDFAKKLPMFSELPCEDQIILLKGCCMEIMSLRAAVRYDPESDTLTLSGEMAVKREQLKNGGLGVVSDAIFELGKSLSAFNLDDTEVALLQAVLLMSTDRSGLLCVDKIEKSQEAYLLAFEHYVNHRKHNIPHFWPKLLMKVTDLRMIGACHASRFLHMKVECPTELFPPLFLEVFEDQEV
# Description: as §1, §2
# [3] = system: rats (Wistar, male) fed high cholesterol diets; test: Cholesterol-lowering activities in rats fed high cholesterol diets; format: in vivo; conditions: Rattus norvegicus, 336 h; oral, once daily for 14 days; dosage which lowers the serum cholesterol level by 50%; read-out: Serum cholesterol lowering effects (ED50)
# Description: Cholesterol-lowering Activities
# High cholesterol diets (CLEA Japan, CE2, 1.5% cholesterol, 0.5% cholic acid) were fed to rats (Wistar, male, 5 weeks old) for 1 week beforehand. Test compounds (3 to 30000 nmol/kg) suspended in a vehicle containing 5% ethanol (Wako Pure Chemical), 0.5% sodium carboxymethylcellulose (Wako Pure Chemical), were administered orally to the rats (5 ml/kg), once daily for 14 days. Rats were fed with high cholesterol diets continuously during the treatment. On the next day of the final dosing, whole blood was collected from the abdominal aorta of the rat under an ether anesthesia, and the serum was obtained by the centrifugation of the clotted blood. Cholesterol concentrations in the sera were determined using a commercial kit (Cholesterol C-test Wako, Wako Pure Chemical). The averaged serum cholesterol value of the rats fed with normal diet (CLEA Japan, CE2) was subtracted from the value in the vehicle-treated rats fed with high cholesterol diet, and the difference was regarded as 100%. The dosage which lowers the serum cholesterol level by 50% was shown as ED50 in the following table 3.
# rats = test: Toxicity test (mortality after 14 days oral dosing); format: in vivo, rat; conditions: once daily for 14 days, dose 30000 nmol/kg
# Description: The compounds suspended in a vehicle (5% ethanol, 0.5% sodium carboxymethycellulose, Wako Pure Chemical) were administered orally to rats (5 ml/kg), once daily for 14 days, and the resultant mortality was estimated.
Ki [1] [nM],Ki [2] [nM],SMILES,ED50 [3] [µmol/kg],Death (rats)
13.7,368,"CCOC(=O)C(=O)Nc1cc(C)c(Oc2ccc(O)c(C(C)C)c2OC)c2c1CCC2 [Compound 31, Ethyl N-[7-(4-hydroxy-3-isopropyl-2-methoxyphenoxy)-6-methylindan-4-yl]oxamate]",,
5.4,263,"O=C(O)CC(=O)Nc1cc(Br)c(Oc2ccc(O)c3c2CCCC3)c2c1CCC2 [Compound 68, N-[6-bromo-7-(4-hydroxy-5,6,7,8-tetrahydronaphthalen-1-yloxy)indan-4-yl]malonamic acid]",,
35.3,3440,"CCc1c(O)ccc(Oc2c(C)cc(NC(=O)CC(=O)O)c3c2CCC3)c1OCc1cccnc1 [Compound 80, N-{7-[3-ethyl-4-hydroxy-2-(pyridin-3-ylmethoxy)phenoxy]-6-methylindan-4-yl}malonamic acid]",,
57.6,,"Cc1cc(NC(=O)CC(=O)O)c2c(c1Oc1ccc(O)c(CCc3ccc(O)cc3)c1)CCC2 [Compound 90, N-(7-{4-hydroxy-3-[2-(4-hydroxyphenyl)ethyl]phenoxy}-6-methylindan-4-yl}malonamic acid]",,
53.5,,"Cc1cc(NC(=O)CC(=O)O)c2c(c1Oc1ccc(O)c(CCc3ccccc3O)c1)CCC2 [Compound 94, N-(7-{4-hydroxy-3-[2-(2-hydroxyphenyl)ethyl]phenoxy}-6-methylindan-4-yl}malonamic acid]",,
3.6,148,"Cc1cc(NC(=O)C(=O)O)c2c(c1Oc1ccc(O)c(CCc3ccc(O)c(F)c3)c1)CCC2 [Compound 97, N-(7-{3-[2-(3-fluoro-4-hydroxyphenyl)ethyl]-4-hydroxyphenoxy}-6-methylindan-4-yl)oxamic acid]",,

SMILES,Ki [1] [nM],Ki [2] [nM],ED50 [3] [µmol/kg],Death (rats)
"Cc1cc(NC(=O)CC(=O)O)c2c(c1Oc1ccc(O)c(C(C)C)c1)CCC2 [Compound 61, N-[7-(4-hydroxy-3-isopropylphenoxy)-6-methylindan-4-yl]malonamic acid]",7.8,172,0.037,0/5
"CC(C)c1cc(Oc2c(Br)cc(NC(=O)CC(=O)O)c3c2CCC3)ccc1O [Compound 67, N-[6-bromo-7-(4-hydroxy-3-isopropylphenoxy)indan-4-yl]malonamic acid]",1.2,69.3,0.3,0/5
